Source: patent US11612634B2 (priority 2020, dated 2023)
Entries after “also recorded” stand apart in the source; their conditions may differ.

Tests used:
[1] = tested on: CCI-induced neuropathic pain rat model; assay: Analgesic effect on mechanical hyperalgesia (PWT) in CCI-induced neuropathic pain rat model; type: in vivo
Method: The chronic constriction nerve injury (CCI)-induced neuropathic pain rat model was built according to a published method (Bennett G J, et al. Pain, 1988). The experimental rats were anesthetized by intraperitoneal injection of 10 wt % chloral hydrate (300 mg/kg), and then placed on a super-clean bench, and the operation area was disinfected with iodophor.
The ligation tightness should be adjusted to cause slight twitching of a leg on an operated side of the rat without affecting the blood circulation of the epineurium. The wound was sutured layeredly and wiped with iodophor according to the postoperative situation. The rats were transferred back into a cage for rest upon fully recovering. The PWT was measured 5 days after modeling, where those with a significant lower PWT were considered as successful neuropathic pain rat models, and the undesirable rats were excluded.
(S1) A total of 15 healthy adult SD rats, weighing 180-220 g, were selected, numbered on tails and placed in the same cage.
(S2) The rats were raised in a measuring room for 2 h for adaptation.
The measurement was repeated 3-5 times for each rat at an interval of 5-10 min, and the results were averaged. Then the rats were allowed to rest for several hours and then adopted to build a CCI-induced neuropathic pain model.
(S4) The PWT was measured on the morning of the 3rd day and the 6th day after the modeling, and those unsuccessful models were removed. And on the 6th after the modeling, the successful rat models were randomly divided into 3 groups, where the group A was injected with normal saline; the group B was injected with 5 mg/kg of morphine; and the group C was intradermally injected with 8 μg/kg of the short peptide P10581 into the left hind paw. 1 h later, the PWT of each group was recorded when the left hind paw generated mechanical withdrawal. Each of the rats was measured 3-5 times at an interval of 5-10 min, and the PWTs were averaged as the actual PWT (unit: g). The drug injection was fixedly performed at 9:00 a.m. and 5:30 p.m. from the 6th day to the 14th day after modeling, and the PWT of each group was measured before and after administration every other day. On the 15th day after modeling, the group B was injected with 8 μg/kg of the short peptide P10581 and the group C was injected with 5 mg/kg of the morphine, and the PWT of the group B and group C was recorded when the mechanical withdrawal occurred to the left hind paw.
(1) 30 healthy adult SD rats, weighing 180-220 g, were selected to build a CCI-induced neuropathic pain model. On the 8th day after the modeling, successfully-established models were randomly divided into 6 groups, where the group A was injected with 0.45 μg/kg of the short peptide P10581; the group B was injected with 0.9 μg/kg of the short peptide P10581; the group C was injected with 1.8 μg/kg of the short peptide P10581; the group D was injected with 3.6 μg/kg of the short peptide P10581; the group E was injected with 7.2 μg/kg of the short peptide P10581; and the group F was injected with 8.5 μg/kg of the short peptide P10581. The PWT of each group was measured 1.5 h later.
(2) Each group was injected with 7.2 μg/kg of the short peptide P10581 at 5:30 p.m. on the 8th day after modeling, and then continuously injected from the 9th day to the 16th day 16 (injected with 7.2 μg/kg of the short peptide P10581 at 9:00 a.m. and 5:30 p.m. a day). The PWT of rats before and after administration in the morning was measured every other day.
(3) On the 17th day after modeling, the six groups were injected with different doses of the short peptide P10581, respectively, according to step (1). 1.5 h later, the PWT of each group was measured to evaluate the effect of dose.
(1) 15 healthy adult SD rats, weighing 180-220 g, were selected to build a CCI-induced neuropathic pain model.

[2] = tested on: morphine analgesic tolerance, inflammatory pain rat model; assay: Effect on morphine analgesic tolerance in Carr-induced inflammatory pain rat model; type: in vivo; conditions: for effect on morphine analgesic tolerance: every 2 h
Method: The Carr-induced inflammatory pain model was built according to a published method (Alessandri-Haber N, et al. Neurosci. Vol 29(19), pp. 6217-6288, 2009) for evaluating an analgesic effect of drugs administered by intraplantar injection. Specifically, 6 μL of 1 wt % Carr solution was injected into the rats between the 2nd and 3rd toes of a left hind paw to induce hyperalgesia, which was manifested as plantar swelling and a declined pain threshold of the rats within 1 hour after the injection. Those rats with a PWT lower than 100 gf were considered to be a desired Carr-induced inflammatory pain model, those rats with the PWT higher than 100 gf was removed.
(1) 24 healthy adult SD rats, weighing 180-220 g, were selected, reinjected with 6 μL of a 1 wt % Carr solution and divided into 4 groups randomly and averagely (i.e., groups A-D). The group A was injected with normal saline; the group B was intradermally injected with 0.1 μg/kg of the short peptide P10581 through the plantar surface of the left hind paw; the group C was intradermally injected with 0.1 μg/kg of the short peptide P10581 and then with 5 mg/kg of morphine 30 min later through the plantar surface of the left hind paw; and the group D was intradermally injected with 0.05 μg/kg of the short peptide P10581, and then with 5 mg/kg of morphine 30 min later through the plantar surface of the left hind paw. 1 h later, the PWT of each group was recorded when the mechanical withdrawal of the left hind paw occurred, and each rat was measured 3-5 times at an interval of 5-10 min.
(2) The drug was injected every 2 h according to the above-mentioned administration dose and time (seven times in total), and the PWT was recorded.
(S1) By means of molecular biological techniques, two cysteine residues (Cys10 and Cys11) in the short peptide P10581 were replaced with alanine (Ala), and the resulting peptide was named P10581-1 (SEQ ID NO: 2).
(S2) Three cysteine residues (Cys10, Cys11 and Cys17) in the short peptide P10581 were replaced with alanine (Ala), and the resulting peptide was named P10581-2 (SEQ ID NO: 3).
The rat was injected with 6 μL of 1 wt % Carr to establish a Carr-induced inflammatory pain model, and the effect of the short peptides P10581, P10581-1 and P10581-2 on the morphine analgesic tolerance was analyzed according to Experimental Example 1. […]

[3] = 8 μg/kg i.d., twice a day, repeated

Compound	analgesic effect / tolerance after repeated injection ([1]; rat, in vivo)	analgesic effect of morphine after repeated P10581 ([1]; rat, in vivo)	analgesic effect on neuropathic pain threshold, low dose ([1]; 0.1 μg/kg i.d., twice a day)	IC50 before vs after repeated administration ([1]; 7.2 μg/kg i.d. repeated (FIG. 8D))	change of PWT after repeated high-dose administration ([1]; 7.2 μg/kg i.d., twice a day, 9 days, test doses 0.45-8.5 μg/kg)	analgesic effect in morphine-tolerant rats ([1]; 8 μg/kg i.d. on day 10 after repeated morphine 5 mg/kg)	analgesic effect on neuropathic pain [1, 3]	analgesic tolerance after repeated injection [1, 3]	administration dose at which analgesic effect reached the peak ([1]; neuropathic pain, i.d.) [µg/kg]	effect on morphine analgesic tolerance ([2]; 0.05 μg/kg peptide i.d. 30 min before 5 mg/kg morphine)	duration of eliminating effect on morphine analgesic tolerance ([2]; 0.1 μg/kg and 0.05 μg/kg peptide with 5 mg/kg morphine)	effect on morphine analgesic tolerance ([2]; 0.1 μg/kg peptide i.d. 30 min before 5 mg/kg morphine)	dose at which morphine analgesic tolerance is effectively alleviated ([2]; inflammatory pain, rats) [µg/kg]
CN1CC[C@]23c4c5ccc(O)c4O[C@H]2[C@@H](O)C=C[C@H]3[C@H]1C5 [morphine, reference compound]	eventually lost the analgesic effect	the same analgesic effect was still kept											
WKCNPNDDKCCRPKLKC [P10581]			no effect on the threshold of neuropathic pain in rats	did not bring significant difference to the IC50	no obvious change occurred to the PWT	neuropathic pain threshold of rats can be reversed	neuropathic pain was alleviated	no analgesic tolerance occurred	7.2	morphine analgesic tolerance can be eliminated; also recorded: completely eliminate the morphine analgesic tolerance	over 14 h	morphine analgesic tolerance can be eliminated; also recorded: completely eliminated	≥ 0.05
